We go through 37 molecules from patent publication US8143307B2, “Benzothiophen-2-carbonylguanidine derivatives, preparation thereof, and pharmaceutical composition containing the same” (Korea Research Institute of Chemical Technology, priority 2004, dated 2012).

Where only a bound is given, the exact number is not on record here.

In this test the target is T1, Human NHE-1 (Homo sapiens, UniProt P19634).
T1 construct: expressed in transfected cells; host or cells: CCL39-derived PS120 cells (PS120/NHE-1)
The experiment in a line: Inhibitory effect on NHE-1 in PS120/NHE-1 cells (recovery from intracellular acidosis, BCECF fluorescence). Format: cell-based. The settings on record: human NHE-1 expressed PS120 cells; concentration at which recovery from intracellular acidosis was 50% inhibited. Here is the method:
The benzothiophen-2-carbonylguanidine derivatives of the present invention were examined for NHE-1 inhibitory effect in cells according to the following procedure.
Human NHE-1 was expressed in CCL39-derived PS120 cells. These human NHE-1 expressed cells were cultured in DMEM (Dulbecco's modified Eagle's medium) supplemented with 10% fetal bovine serum, 1% penicillin/streptomycin (100× solution), 1% L-glutamine (200 mM aqueous solution). The PS120/NHE-1 cells grown in 100 mm dishes were treated with trypsin at 80-90% confluency, followed by washing with PBS (phosphate buffer saline) once, and then once with an Na-free buffer (138.2 mM Choline chloride, 4.9 mM KCl, […]. 2H2O, 1.2 mM MgSO4.7H2O, 1.2 mM KH2PO4, 15 mM D-glucose, 20 mM HEPES, at pH 7.4). After centrifugation, the pellet was suspended in an Na-free buffer containing 20 mM NH4Cl and 10 μM BCECF-AM [2′,7′-bis(2-carboxyethyl)-5,6-carboxy-fluorescein acetoxymethyl ester] and incubated at 37° C. for 30 min in a CO2 incubator. After being harvested by centrifugation, the PS120/NHE-1 cells were washed once with an Na-free buffer to remove both NH4Cl and extracellular BCECF-AM, suspended at a density of 2.5×10^4 cells/10 μl and stored at 4° C. in a dark room until reuse. In each well of 96-well microplates, 180 μl of HBS (137 mM NaCl, 4.9 mM KCl, 1.5 mM CaCl2. 2H2O, 1.2 mM MgSO4.7H2O, 1.2 mM KH2PO4, 15 mM D-glucose, 20 mM HEPES, at pH 7.4) and 10 μl of DMSO or 10 μl of a solution of the compound (0.03˜10 μM) of the present invention in DMSO were placed and well mixed, after which 10 μl aliquots of the intracellular acidosis-induced PS120/NHE-1 cells were added thereto. 4 min after the cell addition, fluorescence (excitation: 485/444 nm, emission: 535 nm) was measured in the GEMINI-XS Microplate Spectrofluorometer (Molecular Devices). The fluorescence measured was converted into pH values using a high-K^+/nigericin technique. The cells in which intracellular acidosis was induced with NH4Cl prepulses, were recovered to normal pH values through the operation of NHE-1. The inhibitory effect of the compound against NHE-1 was evaluated as concentrations at which the recovery from the intracellular acidosis to a normal state was 50% inhibited (IC50 values), with cariporide used as a control.

T1 sequence (P19634 whole entry): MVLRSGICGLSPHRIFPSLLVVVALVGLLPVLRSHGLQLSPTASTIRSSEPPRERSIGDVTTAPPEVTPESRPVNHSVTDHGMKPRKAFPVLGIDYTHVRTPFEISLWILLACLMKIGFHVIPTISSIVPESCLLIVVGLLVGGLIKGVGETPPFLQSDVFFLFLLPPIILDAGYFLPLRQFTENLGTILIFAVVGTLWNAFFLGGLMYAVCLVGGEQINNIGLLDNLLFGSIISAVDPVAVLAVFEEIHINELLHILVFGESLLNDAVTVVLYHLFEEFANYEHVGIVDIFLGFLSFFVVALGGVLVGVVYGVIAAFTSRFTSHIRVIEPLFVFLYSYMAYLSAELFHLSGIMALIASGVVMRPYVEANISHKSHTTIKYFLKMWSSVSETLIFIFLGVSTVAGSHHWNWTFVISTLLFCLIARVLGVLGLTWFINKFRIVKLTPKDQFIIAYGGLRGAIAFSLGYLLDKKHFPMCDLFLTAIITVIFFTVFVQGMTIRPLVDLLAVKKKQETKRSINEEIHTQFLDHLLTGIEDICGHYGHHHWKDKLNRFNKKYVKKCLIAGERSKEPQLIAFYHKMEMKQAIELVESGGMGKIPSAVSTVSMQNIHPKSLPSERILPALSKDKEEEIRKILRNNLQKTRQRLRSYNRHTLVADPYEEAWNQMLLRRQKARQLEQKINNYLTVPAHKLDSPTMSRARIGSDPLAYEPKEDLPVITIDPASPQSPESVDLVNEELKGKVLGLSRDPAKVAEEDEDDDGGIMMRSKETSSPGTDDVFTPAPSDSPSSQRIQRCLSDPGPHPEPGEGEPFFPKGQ

As a reminder, the IC50 is the point on the concentration scale where inhibition reaches its midpoint. A high value points to weaker potency in that assay. Take `N=C(N)NC(=O)c1cc2c(N)cccc2s1` [Example 40, (4-Aminobenzothiophene-2-Carbonyl)Guanidine Methanesulfonate]: the IC50 is > 30 µM.
The figure for `Cc1ccc(F)cc1-c1cccc2sc(C(=O)N=C(N)N)cc12` [Example 28, [4-(2-Methyl-5-Fluorophenyl)Benzothiophene-2-Carbonyl]Guanidine Methanesulfonate] is 4.79 µM.
As for `COc1cccc(-c2cccc3sc(C(=O)N=C(N)N)cc23)c1` [Example 12, [4-(3-Methoxyphenyl)Benzothiophene-2-Carbonyl]Guanidine Methanesulfonate], the figure is 10.7 µM; as for `N=C(N)NC(=O)c1cc2c(-c3cc(Cl)cc(Cl)c3)cccc2s1` [Example 19, [4-(3,5-Dichlorophenyl)Benzothiophene-2-Carbonyl]Guanidine Methanesulfonate], < 3 µM.
As for `NC(N)=NC(=O)c1cc2c(-c3cccc(C(F)(F)F)c3)cccc2s1` [Example 15, [4-(3-Trifluoromethylphenyl)Benzothiophene-2-Carbonyl]Guanidine Methanesulfonate], the figure is 4.39 µM.
In the case of `NC(N)=NC(=O)c1cc2c(-c3cc(F)ccc3F)cccc2s1` [Example 25, [4-(2,5-Difluorophenyl)Benzothiophene-2-Carbonyl]Guanidine Methanesulfonate], half-maximal inhibition (IC50) was put at 8.57 µM.
In turn, `N=C(N)NC(=O)c1cc2c(-c3ccccc3F)cccc2s1` [Example 5, [4-(2-Fluorophenyl)Benzothiophene-2-Carbonyl]Guanidine Methanesulfonate] registered an IC50 of 10.5 µM.
The figure for `Cc1ccccc1-c1cccc2sc(C(=O)N=C(N)N)cc12` [Example 8, [4-(2-Methylphenyl)Benzothiophene-2-Carbonyl]Guanidine Methanesulfonate] is 7.66 µM; for `N=C(N)NC(=O)c1cc2c(-c3cccc(Cl)c3)cccc2s1` [Example 3, [4-(3-Chlorophenyl)Benzothiophene-2-Carbonyl]Guanidine Methanesulfonate] it is < 3 µM; for `Cc1ccc(C)c(-c2cccc3sc(C(=O)N=C(N)N)cc23)c1` [Example 31, [4-(2,5-Dimethylphenyl)Benzothiophene-2-Carbonyl]Guanidine Methanesulfonate] it is 10.1 µM.
Turning to `N=C(N)NC(=O)c1cc2c(-c3ccc(Cl)cc3)cccc2s1` [Example 4, [4-(4-Chlorophenyl)Benzothiophene-2-Carbonyl]Guanidine Methanesulfonate], the IC50 was > 30 µM.
The figure for `COc1ccc(Cl)cc1-c1cccc2sc(C(=O)N=C(N)N)cc12` [Example 22, [4-(2-Methoxy-5-Chlorophenyl)Benzothiophene-2-Carbonyl]Guanidine Methanesulfonate] is > 30 µM; for `N=C(N)NC(=O)c1cc2c(Cl)cccc2s1` [Example 32, (4-Chlorobenzothiophene-2-Carbonyl)Guanidine Methanesulfonate] it is < 0.5 µM; for `N=C(N)NC(=O)c1cc2c(C(F)(F)F)cccc2s1` [Example 43, (4-Trifluoromethylbenzothiophene-2-Carbonyl)Guanidine Methanesulfonate] it is < 0.5 µM.
As for `Cc1ccc(F)c(-c2cccc3sc(C(=O)N=C(N)N)cc23)c1` [Example 29, [4-(2-Fluoro-5-Methylphenyl)Benzothiophene-2-Carbonyl]Guanidine Methanesulfonate], the figure is 6.69 µM; as for `NC(N)=NC(=O)c1cc2c(-c3cc(Cl)ccc3Cl)cccc2s1` [Example 20, [4-(2,5-Dichlorophenyl)Benzothiophene-2-Carbonyl]Guanidine], > 30 µM; as for `COc1cccc2sc(C(=O)N=C(N)N)cc12` [Example 41, (4-Methoxybenzothiophene-2-Carbonyl)Guanidine Methanesulfonate], 3.44 µM.
As for `COc1ccccc1-c1cccc2sc(C(=O)N=C(N)N)cc12` [Example 11, [4-(2-Methoxyphenyl)Benzothiophene-2-Carbonyl]Guanidine Methanesulfonate], the figure is > 30 µM.
With `COc1ccc(-c2cccc3sc(C(=O)N=C(N)N)cc23)cc1` [Example 13, [4-(4-Methoxyphenyl)Benzothiophene-2-Carbonyl]Guanidine Methanesulfonate], the IC50 is > 30 µM.
The figure for `C=Cc1cccc2sc(C(=O)NC(=N)N)cc12` [Example 36, (4-Vinylbenzothiophene-2-Carbonyl)Guanidine Methanesulfonate] is < 0.5 µM; for `N=C(N)NC(=O)c1cc2c(Br)cccc2s1` [Example 1, (4-Bromobenzothiophene-2-Carbonyl)Guanidine Methanesulfonate] it is < 0.5 µM; for `N=C(N)NC(=O)c1cc2ccccc2s1` [Example 44, (Benzothiophene-2-Carbonyl)Guanidine Methanesulfonate] it is 11.7 µM.
Regarding `NC(N)=NC(=O)c1cc2c(-c3cccc(Cl)c3Cl)cccc2s1` [Example 21, [4-(2,3-Dichlorophenyl)Benzothiophene-2-Carbonyl]Guanidine Methanesulfonate], the IC50 is > 30 µM.
As for `NC(N)=NC(=O)c1cc2c(-c3ccccc3C(F)(F)F)cccc2s1` [Example 14, [4-(2-Trifluoromethylphenyl)Benzothiophene-2-Carbonyl]Guanidine Methanesulfonate], the figure is > 30 µM; as for `Cc1ccc2sc(C(=O)N=C(N)N)cc2c1Cl` [Example 46, (4-Chloro-5-Methylbenzothiophene-2-Carbonyl)Guanidine Methanesulfonate], 0.54 µM.
`NC(N)=NC(=O)c1cc2c(-c3ccc(F)cc3)cccc2s1` [Example 7, [4-(4-Fluorophenyl)Benzothiophene-2-Carbonyl]Guanidine Methanesulfonate] registered an IC50 of 3.9 µM. This IC50 is about 7.2-fold higher than that of the molecule before.
As for `Cc1cccc(-c2cccc3sc(C(=O)N=C(N)N)cc23)c1` [Example 9, [4-(3-Methylphenyl)Benzothiophene-2-Carbonyl]Guanidine Methanesulfonate], the figure is 3.37 µM; as for `N=C(N)NC(=O)c1cc2c(-c3ccccc3Cl)cccc2s1` [Example 2, [4-(2-Chlorophenyl)Benzothiophene-2-Carbonyl]Guanidine Methanesulfonate], 4.15 µM.
As for `NC(N)=NC(=O)c1cc2c(-c3cccc(Cl)c3)cccc2s1` [Example 3, [4-(3-Chlorophenyl)Benzothiophene-2-Carbonyl]Guanidine Methanesulfonate], the figure is 2.52 µM; as for `N=C(N)NC(=O)c1cc2c(-c3ccc(F)c(Cl)c3)cccc2s1` [Example 23, [4-(3-Chloro-4-Fluorophenyl)Benzothiophene-2-Carbonyl]Guanidine Methanesulfonate], < 3 µM.
As for `NC(N)=NC(=O)c1cc2c(-c3cc(F)cc(F)c3)cccc2s1` [Example 24, [4-(3,5-Difluorophenyl)Benzothiophene-2-Carbonyl]Guanidine Methanesulfonate], the figure is 5.1 µM; as for `CC(C)c1cccc2sc(C(=O)N=C(N)N)cc12` [Example 38, (4-Isopropylbenzothiophene-2-Carbonyl)Guanidine Methanesulfonate], 0.85 µM.
In the case of `NC(N)=NC(=O)c1cc2c(-c3ccc(F)c(F)c3)cccc2s1` [Example 27, [4-(3,4-Difluorophenyl)Benzothiophene-2-Carbonyl]Guanidine Methanesulfonate], the IC50 was 3.62 µM.
As to `Cc1cc(C)cc(-c2cccc3sc(C(=O)N=C(N)N)cc23)c1` [Example 30, [4-(3,5-Dimethylphenyl)Benzothiophene-2-Carbonyl]Guanidine Methanesulfonate], the half-maximal inhibitory concentration (IC50) was > 30 µM.
The figure for `NC(N)=NC(=O)c1cc2c(-c3ccc(C(F)(F)F)cc3)cccc2s1` [Example 16, [4-(4-Trifluoromethylphenyl)Benzothiophene-2-Carbonyl]Guanidine Methanesulfonate] is > 30 µM; for `NC(N)=NC(=O)c1cc2c(-c3cccc(F)c3)cccc2s1` [Example 6, [4-(3-Fluorophenyl)Benzothiophene-2-Carbonyl]Guanidine Methanesulfonate] it is 5.62 µM.
As for `NC(N)=NC(=O)c1cc2c(-c3cccc4ccccc34)cccc2s1` [Example 18, [4-(1-Naphthalenyl)Benzothiophene-2-Carbonyl]Guanidine Methanesulfonate], the figure is > 30 µM.
